Test results: the supplement of paper PMC5412046
Counter-ions that a name gives are not always drawn.

tested on: SB.mhdgc-1; assay: viability at highest tested concentration (MAXR) relative to DMSO; higher = less cytotoxic; settings: SB.mhdgc-1 (hereditary c.1380delA CDH1 gastric cancer)
Summary of the method: (§1)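 The values represent viability normalised to DMSO, expressed at the highest concentration or as trapezoidal area under the curve. Cells were hereditary or sporadic patient-derived gastric cancer cells, 500 in 5 μL medium per 1536 well. They were dosed with 23 nL of compound in DMSO by pintool over 11 threefold dilutions, with each compound's top concentration recorded. CellTiter-Glo was applied 48 h later for 30 min at room temperature before luminescence was read on a ViewLux.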

SMILES | viability
NC/1=N/C(=O)N(/C=C1F)[C@H]2CS[C@H](CO)O2 [Emtricitabine] (top concentration 46.0829 µM) | 112%
NC(=O)c1ccc(N(C(N)=O)c2c(F)cccc2F)nc1-c1ccc(F)cc1F [VX-702] (top concentration 46.0829 µM) | 55.7%
CC1(C)OC2CC3C4CC(F)C/5=C/C(=O)/C=C\C5(C)C4C(O)CC3(C)[C@@]2(O1)C(=O)CO (some centres undefined) [Flunisolide] (top concentration 46.0829 µM) | 122%
O=C(O)C(=O)c1cn(Cc2ccccc2)c2ccc(-c3ccc(OC(F)(F)F)cc3)cc12 [Tiplasinin] (top concentration 46.0829 µM) | 102%
CN[C@@H]1Cc2cccc3[nH]c(=O)n(c23)C1 [Sumanirole maleate] (top concentration 46.0829 µM) | 84.2%
Nc1ccn([C@H]2CS[C@@H](CO)O2)c(=O)n1 [Lamivudine] (top concentration 92.1659 µM) | 73.8%
Cn1cc(/C=C2\C(=O)Nc3cccnc32)c2ccccc21 (top concentration 46.0829 µM) | 88.4%
O=C(c1ccc(C(=O)N2CCC(N3CCCC3)CC2)c(Nc2ccccc2)c1)N1CCC(N2CCCC2)CC1 [UNC1215] (top concentration 46.0829 µM) | 154%
CN[S+](=O)([O-])Cc1ccc2[nH]cc(CCN(C)C)c2c1 [Sumatriptan succinate] (top concentration 46.0829 µM) | 79.8%
COc1cc(NC(=O)c2ccc(-c3ccc(Cl)cc3)o2)cc(OC)c1 (top concentration 46.0829 µM) | 3.96%
CC(C)[C@H](N)C(=O)OCCOC[N]1C=NC2=C1\N=C(N)/NC2=O [Valaciclovir] (top concentration 46.0829 µM) | 110%
O=P1(N(CCCl)CCCl)NCCCO1 (centres undefined) [Cyclophosphamide] (top concentration 46.0829 µM) | 110%
Nc1cc(C(F)(F)F)c(-c2cc(N3CCOCC3)nc(N3CCOCC3)n2)cn1 [BKM-120] (top concentration 46.0829 µM) | 20.6%
O=C1Nc2ccc(Cl)cc2C(C#CC2CC2)(C(F)(F)F)O1 (centres undefined) [Efavirenz] (top concentration 46.0829 µM) | 52%
CCOC(=O)C/1=C(C)/NC(=S)NC1C2=CC=CC(=C2)O (centres undefined) [Monastrol] (top concentration 46.0829 µM) | 86.2%
CC1(C)NC(=O)N(c2ccc([N+](=O)[O-])c(C(F)(F)F)c2)C1=O [Nilutamide] (top concentration 46.0829 µM) | 81.9%
COC(=O)Nc1nc2cc(C(=O)c3ccccc3)ccc2[nH]1 [Mebendazole] (top concentration 46.0829 µM) | 29.2%
Cc1nccn1CC1CCc2c(c3ccccc3n2C)C1=O (centres undefined) [Ondansetron hydrochloride] (top concentration 46.0829 µM) | 109%
ClC1=C[NH]N=C1C\2NC(=N\C3=C2C(=O)CCC3)/NC4=NC5=CC=CC=C5O4 (centres undefined) (top concentration 46.0829 µM) | 96.5%
CCN1\C=C(\C(O)=O)C(=O)C2=C1N=C(N3CCNCC3)C(=C2)F [Enoxacin] (top concentration 46.0829 µM) | 65.9%
COC1CCC(CC1)N(C(=O)C2CCC(C)CC2)C3=C(SC(=C3)\C4=C\CCCC4)C(O)=O (centres undefined) [VCH-916] (top concentration 46.0829 µM) | 99.5%

tested on: SB.msgc-1; assay: as above; settings: SB.msgc-1 (sporadic gastric cancer)
Summary of the method: as §1

SMILES | viability
NC/1=N/C(=O)N(/C=C1F)[C@H]2CS[C@H](CO)O2 [Emtricitabine] (top concentration 46.0829 µM) | 120%
NC(=O)c1ccc(N(C(N)=O)c2c(F)cccc2F)nc1-c1ccc(F)cc1F [VX-702] (top concentration 46.0829 µM) | 89.3%
CC1(C)OC2CC3C4CC(F)C/5=C/C(=O)/C=C\C5(C)C4C(O)CC3(C)[C@@]2(O1)C(=O)CO (some centres undefined) [Flunisolide] (top concentration 46.0829 µM) | 121%
O=C(O)C(=O)c1cn(Cc2ccccc2)c2ccc(-c3ccc(OC(F)(F)F)cc3)cc12 [Tiplasinin] (top concentration 46.0829 µM) | 72.1%
CN[C@@H]1Cc2cccc3[nH]c(=O)n(c23)C1 [Sumanirole maleate] (top concentration 46.0829 µM) | 91.7%
Nc1ccn([C@H]2CS[C@@H](CO)O2)c(=O)n1 [Lamivudine] (top concentration 92.1659 µM) | 104%
Cn1cc(/C=C2\C(=O)Nc3cccnc32)c2ccccc21 (top concentration 46.0829 µM) | 79%
O=C(c1ccc(C(=O)N2CCC(N3CCCC3)CC2)c(Nc2ccccc2)c1)N1CCC(N2CCCC2)CC1 [UNC1215] (top concentration 46.0829 µM) | 111%
CN[S+](=O)([O-])Cc1ccc2[nH]cc(CCN(C)C)c2c1 [Sumatriptan succinate] (top concentration 46.0829 µM) | 97.6%
COc1cc(NC(=O)c2ccc(-c3ccc(Cl)cc3)o2)cc(OC)c1 (top concentration 46.0829 µM) | 3.84%
CC(C)[C@H](N)C(=O)OCCOC[N]1C=NC2=C1\N=C(N)/NC2=O [Valaciclovir] (top concentration 46.0829 µM) | 94.6%
O=P1(N(CCCl)CCCl)NCCCO1 (centres undefined) [Cyclophosphamide] (top concentration 46.0829 µM) | 117%
Nc1cc(C(F)(F)F)c(-c2cc(N3CCOCC3)nc(N3CCOCC3)n2)cn1 [BKM-120] (top concentration 46.0829 µM) | 19%
O=C1Nc2ccc(Cl)cc2C(C#CC2CC2)(C(F)(F)F)O1 (centres undefined) [Efavirenz] (top concentration 46.0829 µM) | 40.6%
CCOC(=O)C/1=C(C)/NC(=S)NC1C2=CC=CC(=C2)O (centres undefined) [Monastrol] (top concentration 46.0829 µM) | 48.5%
CC1(C)NC(=O)N(c2ccc([N+](=O)[O-])c(C(F)(F)F)c2)C1=O [Nilutamide] (top concentration 46.0829 µM) | 49.4%
COC(=O)Nc1nc2cc(C(=O)c3ccccc3)ccc2[nH]1 [Mebendazole] (top concentration 46.0829 µM) | 33.2%
Cc1nccn1CC1CCc2c(c3ccccc3n2C)C1=O (centres undefined) [Ondansetron hydrochloride] (top concentration 46.0829 µM) | 88.5%
ClC1=C[NH]N=C1C\2NC(=N\C3=C2C(=O)CCC3)/NC4=NC5=CC=CC=C5O4 (centres undefined) (top concentration 46.0829 µM) | 84.7%
CCN1\C=C(\C(O)=O)C(=O)C2=C1N=C(N3CCNCC3)C(=C2)F [Enoxacin] (top concentration 46.0829 µM) | 80.9%
COC1CCC(CC1)N(C(=O)C2CCC(C)CC2)C3=C(SC(=C3)\C4=C\CCCC4)C(O)=O (centres undefined) [VCH-916] (top concentration 46.0829 µM) | 70.1%

tested on: SB.mhdgc-1; assay: area under the dose-response curve of % viability (trapezoidal, 11 doses) (% viability x log10 concentration); higher = less cytotoxic; settings: SB.mhdgc-1 (hereditary c.1380delA CDH1 gastric cancer)
Summary of the method: as §1

SMILES | area under the dose-response curve
NC/1=N/C(=O)N(/C=C1F)[C@H]2CS[C@H](CO)O2 [Emtricitabine] (top concentration 46.0829 µM) | 534
NC(=O)c1ccc(N(C(N)=O)c2c(F)cccc2F)nc1-c1ccc(F)cc1F [VX-702] (top concentration 46.0829 µM) | 498
CC1(C)OC2CC3C4CC(F)C/5=C/C(=O)/C=C\C5(C)C4C(O)CC3(C)[C@@]2(O1)C(=O)CO (some centres undefined) [Flunisolide] (top concentration 46.0829 µM) | 609
O=C(O)C(=O)c1cn(Cc2ccccc2)c2ccc(-c3ccc(OC(F)(F)F)cc3)cc12 [Tiplasinin] (top concentration 46.0829 µM) | 597
CN[C@@H]1Cc2cccc3[nH]c(=O)n(c23)C1 [Sumanirole maleate] (top concentration 46.0829 µM) | 508
Nc1ccn([C@H]2CS[C@@H](CO)O2)c(=O)n1 [Lamivudine] (top concentration 92.1659 µM) | 458
Cn1cc(/C=C2\C(=O)Nc3cccnc32)c2ccccc21 (top concentration 46.0829 µM) | 521
O=C(c1ccc(C(=O)N2CCC(N3CCCC3)CC2)c(Nc2ccccc2)c1)N1CCC(N2CCCC2)CC1 [UNC1215] (top concentration 46.0829 µM) | 589
CN[S+](=O)([O-])Cc1ccc2[nH]cc(CCN(C)C)c2c1 [Sumatriptan succinate] (top concentration 46.0829 µM) | 558
COc1cc(NC(=O)c2ccc(-c3ccc(Cl)cc3)o2)cc(OC)c1 (top concentration 46.0829 µM) | 379
CC(C)[C@H](N)C(=O)OCCOC[N]1C=NC2=C1\N=C(N)/NC2=O [Valaciclovir] (top concentration 46.0829 µM) | 528
O=P1(N(CCCl)CCCl)NCCCO1 (centres undefined) [Cyclophosphamide] (top concentration 46.0829 µM) | 595
Nc1cc(C(F)(F)F)c(-c2cc(N3CCOCC3)nc(N3CCOCC3)n2)cn1 [BKM-120] (top concentration 46.0829 µM) | 285
O=C1Nc2ccc(Cl)cc2C(C#CC2CC2)(C(F)(F)F)O1 (centres undefined) [Efavirenz] (top concentration 46.0829 µM) | 435
CCOC(=O)C/1=C(C)/NC(=S)NC1C2=CC=CC(=C2)O (centres undefined) [Monastrol] (top concentration 46.0829 µM) | 398
CC1(C)NC(=O)N(c2ccc([N+](=O)[O-])c(C(F)(F)F)c2)C1=O [Nilutamide] (top concentration 46.0829 µM) | 481
COC(=O)Nc1nc2cc(C(=O)c3ccccc3)ccc2[nH]1 [Mebendazole] (top concentration 46.0829 µM) | 391
Cc1nccn1CC1CCc2c(c3ccccc3n2C)C1=O (centres undefined) [Ondansetron hydrochloride] (top concentration 46.0829 µM) | 562
ClC1=C[NH]N=C1C\2NC(=N\C3=C2C(=O)CCC3)/NC4=NC5=CC=CC=C5O4 (centres undefined) (top concentration 46.0829 µM) | 537
CCN1\C=C(\C(O)=O)C(=O)C2=C1N=C(N3CCNCC3)C(=C2)F [Enoxacin] (top concentration 46.0829 µM) | 397
COC1CCC(CC1)N(C(=O)C2CCC(C)CC2)C3=C(SC(=C3)\C4=C\CCCC4)C(O)=O (centres undefined) [VCH-916] (top concentration 46.0829 µM) | 482

tested on: SB.msgc-1; assay: as above; settings: SB.msgc-1 (sporadic gastric cancer)
Summary of the method: as §1

SMILES | area under the dose-response curve
NC/1=N/C(=O)N(/C=C1F)[C@H]2CS[C@H](CO)O2 [Emtricitabine] (top concentration 46.0829 µM) | 520
NC(=O)c1ccc(N(C(N)=O)c2c(F)cccc2F)nc1-c1ccc(F)cc1F [VX-702] (top concentration 46.0829 µM) | 489
CC1(C)OC2CC3C4CC(F)C/5=C/C(=O)/C=C\C5(C)C4C(O)CC3(C)[C@@]2(O1)C(=O)CO (some centres undefined) [Flunisolide] (top concentration 46.0829 µM) | 573
O=C(O)C(=O)c1cn(Cc2ccccc2)c2ccc(-c3ccc(OC(F)(F)F)cc3)cc12 [Tiplasinin] (top concentration 46.0829 µM) | 468
CN[C@@H]1Cc2cccc3[nH]c(=O)n(c23)C1 [Sumanirole maleate] (top concentration 46.0829 µM) | 522
Nc1ccn([C@H]2CS[C@@H](CO)O2)c(=O)n1 [Lamivudine] (top concentration 92.1659 µM) | 516
Cn1cc(/C=C2\C(=O)Nc3cccnc32)c2ccccc21 (top concentration 46.0829 µM) | 517
O=C(c1ccc(C(=O)N2CCC(N3CCCC3)CC2)c(Nc2ccccc2)c1)N1CCC(N2CCCC2)CC1 [UNC1215] (top concentration 46.0829 µM) | 525
CN[S+](=O)([O-])Cc1ccc2[nH]cc(CCN(C)C)c2c1 [Sumatriptan succinate] (top concentration 46.0829 µM) | 519
COc1cc(NC(=O)c2ccc(-c3ccc(Cl)cc3)o2)cc(OC)c1 (top concentration 46.0829 µM) | 457
CC(C)[C@H](N)C(=O)OCCOC[N]1C=NC2=C1\N=C(N)/NC2=O [Valaciclovir] (top concentration 46.0829 µM) | 508
O=P1(N(CCCl)CCCl)NCCCO1 (centres undefined) [Cyclophosphamide] (top concentration 46.0829 µM) | 567
Nc1cc(C(F)(F)F)c(-c2cc(N3CCOCC3)nc(N3CCOCC3)n2)cn1 [BKM-120] (top concentration 46.0829 µM) | 388
O=C1Nc2ccc(Cl)cc2C(C#CC2CC2)(C(F)(F)F)O1 (centres undefined) [Efavirenz] (top concentration 46.0829 µM) | 331
CCOC(=O)C/1=C(C)/NC(=S)NC1C2=CC=CC(=C2)O (centres undefined) [Monastrol] (top concentration 46.0829 µM) | 347
CC1(C)NC(=O)N(c2ccc([N+](=O)[O-])c(C(F)(F)F)c2)C1=O [Nilutamide] (top concentration 46.0829 µM) | 287
COC(=O)Nc1nc2cc(C(=O)c3ccccc3)ccc2[nH]1 [Mebendazole] (top concentration 46.0829 µM) | 434
Cc1nccn1CC1CCc2c(c3ccccc3n2C)C1=O (centres undefined) [Ondansetron hydrochloride] (top concentration 46.0829 µM) | 539
ClC1=C[NH]N=C1C\2NC(=N\C3=C2C(=O)CCC3)/NC4=NC5=CC=CC=C5O4 (centres undefined) (top concentration 46.0829 µM) | 575
CCN1\C=C(\C(O)=O)C(=O)C2=C1N=C(N3CCNCC3)C(=C2)F [Enoxacin] (top concentration 46.0829 µM) | 414
COC1CCC(CC1)N(C(=O)C2CCC(C)CC2)C3=C(SC(=C3)\C4=C\CCCC4)C(O)=O (centres undefined) [VCH-916] (top concentration 46.0829 µM) | 501
